According to patent US9408826B2, “Isoflavone anti-viral compounds” (Kineta, Inc., priority 2010, dated 2016):

System: Murine Encephalomyocarditis virus (EMCV)
Assay: EMCV antiviral assay (cell viability by MTS)
Format: cell-based
Details: Huh7 cells; for Cell viability post-infection: EMCV 250 pfu, MTS
Description: Huh7 cells were grown under normal growth conditions and treated with the indicated amount of drug in media containing 0.5% DMSO. The cells were grown in the presence of drug for 5 hours and then infected with 250 pfu Murine Encephalomyocarditis virus (EMCV) for example obtained from ATCC #VR-129B. Infected cells were grown for an additional 18 hours and then cell viability was measured using an MTS assay. Negative control cells were treated with buffer alone containing 0.5% DMSO. Interferon treatment was used as a positive control for virus inhibition and was added similar to drug treatments at a final concentration of 10 IU/mL for example Interferon-α: Intron A, from Schering-Plough. Cell viability was measured using an MTS assay such as; CellTiter 96® AQueous One Solution Cell Proliferation Assay (MTS), from Promega #G3580.

CS(=O)(=O)Oc1ccc2c(=O)c(-c3ccc(Br)cc3)coc2c1 [KIN101, [3-(4-bromophenyl)-4-oxo-chromen-7-yl] methanesulfonate]
Cell viability post-infection (5 μM drug): ~0.7 | Cell viability post-infection (10 μM drug): ~1.2 | Cell viability post-infection (20 μM drug): ~1.45 | Protection of cell viability following infection with EMCV (in words): protective of cell viability
